How the values were obtained:
[1] = tested on: IL-12 production in human PBMC or THP-1 cells; experiment: Human in vitro assay: inhibition of IL-12 production (ELISA) in stimulated PBMC or THP-1 cells; type: cell-based; conditions: IFNγ plus LPS or SAC stimulation
From the text: The biological activities of a heterocyclic compound can be evaluated by a number of cell-based assays. One of such assays can be conducted using cells from human peripheral blood mononuclear cells (PBMC) or human monocytic cell line (THP-1). The cells are stimulated with a combination of human interferon-γ (IFNγ) and lipopolysaccharide or a combination of IFNγ and Staphylococcus aureus Cowan I in the presence of a test compound. The level of inhibition of IL-12 production can be measured by determining the amount of p70 by using a sandwich ELISA assay with anti-human IL-12 antibodies. IC50 of the test compound can then be determined. Specifically, PBMC or THP-1 cells are incubated with the test compound. Cell viability was assessed using the bioreduction of MTS [3-(4,5-dimethylthiazol-2-yl)-5-(3-carboxymethoxyphenyl)-2-(4-sulfophenyl)-2H-tetrazolium] (Promega, Madison, Wis.).
Reagents. Staphylococcus aureus Cowan I (SAC) is obtained from Calbiochem (La Jolla, Calif.), and lipopolysaccharide (LPS, Serratia marscencens) is obtained from Sigma (St. Louis, Mo.). Human and mouse recombinant IFNγ are purchased from Boehringer Mannheim (Mannheim, Germany) and Pharmingen (San Diego, Calif.), respectively.
Human In Vitro Assay. Human PBMC were isolated by centrifugation using Ficoll-Paque (Pharmacia Biotech, Uppsala, Sweden) and prepared in RPMI medium supplemented with 10% fetal calf serum (FCS), 100 U/mL penicillin, and 100 μg/mL streptomycin. PBMC were plated in wells of a 96-well plate at a concentration of 5×10^5 cells/well, and primed by adding IFNγ (30 U/mL) for 22 h and stimulated by adding LPS (1 vg/mL), or by adding IFNγ (100 U/mL) and then stimulated by adding SAC (0.01%). A test pyridine compound was dissolved in DMSO, and added to wells of the 96-well plate. The final DMSO concentration was adjusted to 0.25% in all cultures, including the compound-free control. Human THP-1 cells were plated in wells, primed by adding IFNγ (100 U/mL) for 22 h and stimulated by adding SAC (0.025%) in the presence of different concentrations of the pyridine compound. Cell-free supernatants were taken 18 h later for measurement of cytokines. Cell viability was assessed using the bioreduction of MTS. Cell survival was estimated by determining the ratio of the absorbance in compound-treated groups versus compound-free control.
The supernatant was assayed for the amount of IL-12p40, IL-12p70, or IL-10 by using a sandwich ELISA with anti-human antibodies, i.e., a Human IL-12 p40 ELISA kit from R&D Systems (Berkeley, Calif.), and a Human IL-12 p70 or IL-10 ELISA kit from Endogen (Cambridge, Mass.). Assays were based on the manufacturer's instructions.
The biological activities of pyridine compounds were tested on human PBMC or THP-1 cells.

[2] = tested on: adjuvant arthritis (AA) in female Lewis rats; experiment: In vivo adjuvant arthritis assay in rats; parameters: species or system rat; conditions: oral, once a day for 7 days (day 7-14); dose-dependent; experiments repeated four times; FIG. 1
Experimental: Treatment of adjuvant arthritis in rats: Adjuvant arthritis (AA) was induced in female Lewis rats by the intracutaneous injection (base of the tail) of 0.1 mL of a 10 mg/mL bacterial suspension made from ground, heat-killed Mycobacterium tuberculosis H37Ra suspended in incomplete Freund's adjuvant. Rats were given a test compound orally once a day for 7 days (day 7-14), starting day 7 after mycobacterium induction. The development of polyarthritis was monitored daily by macroscopic inspection and assignment of an arthritis index to each animal, during the critical period (days 10 to 25 post-immunization).
The intensity of polyarthritis was scored according to the following scheme: (a) Grade each paw from 0 to 3 based on erythema, swelling, and deformity of the joints: 0 for no erythema or swelling; 0.5 if swelling is detectable in at least one joint; 1 for mild swelling and erythema; 2 for swelling and erythema of both tarsus and carpus; and 3 for ankylosis and bony deformity.
Maximum score for all 4 paws was thus 12. (b) Grade for other parts of the body: for each ear, 0.5 for redness and another 0.5 if knots are present; 1 for connective tissue swelling (saddle nose); and 1 for the presence of knots or kinks in the tail. The highest possible arthritic index was 16.
Experiments with the AA model were repeated four times.

Row | SMILES | IC50 [1] | arthritic score [2] | development of polyarthritis [2]
1 | Cc1cccc(/C=N/Nc2c(F)c(OCCN3CCOCC3)nc(N3CCOCC3)c2F)c1 [Compound 13, N-[3,5-Difluoro-2-morpholin-4-yl-6-(2-morpholin-4-yl-ethoxy)-pyridin-4-yl]-N′-(3-methyl-benzylidene)-hydrazine] | 148 nM |  | 
2 | Cc1cccc(/C=N/Nc2cc(OCCN3CCOC3=O)cc(N3CCOCC3)n2)c1 [Compound 18, 3-(2-{2-[N′-(3-Methyl-benzylidene)-hydrazino]-6-morpholin-4-yl-pyridin-4-yloxy}-ethyl)-oxazolidin-2-one] | 927 nM |  | 
3 | COc1ccc(CCOc2cc(NN=Cc3c[nH]c4ccccc34)nc(N3CCOCC3)c2)cc1OC [Compound 3, N-{4-[2-(3,4-Dimethoxy-phenyl)-ethoxy]-6-morpholin-4-yl-pyridin-2-yl}-N′-(1H-indol-3-ylmethylene)-hydrazine] | 800 nM |  | 
4 | Cc1cccc(C=NNc2cc(OCCN3CCOC3=O)cc(N3CCOCC3)n2)c1 [Compound 11, 3-(2-{2-[N′-(3-methyl-benzylidene)-hydrazino]-6-morpholin-4-yl-pyridin-4-yloxy}-ethyl)oxazolidin-2-one] | 927 nM |  | 
5 | COc1ccc(CCOc2cc(N3CCOCC3)cc(NN=Cc3cccc(C)c3)n2)cc1OC [Compound 7, N-{6-[2-(3,4-Dimethoxy-phenyl)-ethoxy]-4-morpholin-4-yl-pyridin-2-yl}-N′-(3-methyl-benzylidene)-hydrazine] | 14.1 nM |  | 
6 | C(=N\Nc1cc(N2CCOCC2)cc(OCCN2CCOCC2)n1)/c1ccoc1 [Compound 19, N-Furan-3-ylmethylene-N′-[4-morpholin-4-yl-6-(2-morpholin-4-yl-ethoxy)-pyridin-2-yl]-hydrazine] | 5000 nM |  | 
7 | Cc1cccc(C=NNc2nc(OCCN3CCOCC3)c(F)c(N3CCOCC3)c2F)c1 [Compound 12, N-[3,5-Difluoro-4-morpholin-4-yl-6-(2-morpholin-4-yl-ethoxy)-pyridin-2-yl]-N′-(3-methyl-benzylidene)-hydrazine] | > 1000 nM |  | 
8 | Cc1cccc(/C=N/Nc2cc(N3CCOCC3)cc(OCCN3CCOCC3)[n+]2[O-])c1 [Compound 21, N-(3-Methyl-benzylidene)-N′-[4-morpholin-4-yl-6-(2-morpholin-4-yl-ethoxy)-1-oxy-pyridin-2-yl]-hydrazine] | 86 nM |  | 
9 | COc1ccc(CCOc2cc(N3CCOCC3)cc(NN=Cc3c[nH]c4ccccc34)n2)cc1OC [Compound 2, N-{6-[2-(3,4-Dimethoxy-phenyl)-ethoxy]-4-morpholin-4-yl-pyridin-2-yl}-N′-(1H-indol-3-ylmethylene)-hydrazine] | 5 nM |  | 
10 | COc1ccc(CCOc2cc(Nc3ccc4[nH]c(C)c(C)c4c3)nc(N3CCOCC3)c2)cc1OC [Compound 9, {4-[2-(3,4-Dimethoxy-phenyl)-ethoxy]-6-morpholin-4-yl-pyridin-2-yl}-(2,3-dimethyl-1H-indol-5-yl)-amine] | 350 nM |  | 
11 | COc1ccc(CCOc2cc(Nc3cccc(C)c3)nc(N3CCOCC3)c2)cc1OC [Compound 10, {4-[2-(3,4-Dimethoxy-phenyl)-ethoxy]-6-morpholin-4-yl-pyridin-2-yl}-m-tolyl-amine] | 5000 nM |  | 
12 | Cc1ccc(N)c(/C=N/Nc2cc(N3CCOCC3)cc(OCCN3CCOCC3)n2)c1 [Compound 20, 4-Methyl-2-{[4-morpholin-4-yl-6-(2-morpholin-4-yl-ethoxy)-pyridin-2-yl]-hydrazonomethyl}-phenylamine] | 11.4 nM |  | 
13 | Cc1cccc(/C=N/Nc2cc(N3CCOCC3)cc(OCCN3CCOCC3)n2)c1 [Compound 14, N-(3-Methyl-benzylidene)-N′-[4-morpholin-4-yl-6-(2-morpholin-4-yl-ethoxy)-pyridin-2-yl]-hydrazine] | 25 nM | reproducibly reduced the arthritic score | delayed the development of polyarthritis
14 | COc1ccc(CCOc2cc(NN=Cc3c[nH]c4ccccc34)cc(N3CCOCC3)n2)cc1OC [Compound 1, N-{2-[2-(3,4-Dimethoxy-phenyl)-ethoxy]-6-morpholin-4-yl-pyridin-4-yl}-N′-(1H-indol-3-ylmethylene)-hydrazine] | 10 nM |  | 
15 | C(=N\Nc1cc(N2CCOCC2)cc(OCCN2CCOCC2)n1)/c1c[nH]c2ccccc12 [Compound 16, N-(1H-Indol-3-ylmethylene)-N′-[4-morpholin-4-yl-6-(2-morpholin-4-yl-ethoxy)-pyridin-2-yl]-hydrazine] | 36.6 nM |  | 
16 | COc1ccc(CCOc2cc(N3CCOCC3)cc(Nc3ccc4[nH]c(C)c(C)c4c3)n2)cc1OC [Compound 4, {6-[2-(3,4-Dimethoxy-phenyl)-ethoxy]-4-morpholin-4-yl-pyridin-2-yl}-(2,3-dimethyl-1H-indol-5-yl)-amine] | 197 nM |  | 
17 | COc1ccc(CCOc2cc(NN=Cc3cccc(C)c3)cc(N3CCOCC3)n2)cc1OC [Compound 6, N-{2-[2-(3,4-Dimethoxy-phenyl)-ethoxy]-6-morpholin-4-yl-pyridin-4-yl}-N′-(3-methyl-benzylidene)-hydrazine] | 5 nM |  | 
18 | Cc1cccc(/C=N/N(C)c2cc(N3CCOCC3)cc(OCCN3CCOCC3)n2)c1 [Compound 17, N-Methyl-N′-(3-methyl-benzylidene)-N-[4-morpholin-4-yl-6-(2-morpholin-4-yl-ethoxy)-pyridin-2-yl]-hydrazine] | 14.2 nM |  | 
19 | COc1ccc(CCOc2cc(NN=Cc3cccc(C)c3)nc(N3CCOCC3)c2)cc1OC [Compound 5, N-{4-[2-(3,4-Dimethoxy-phenyl)-ethoxy]-6-morpholin-4-yl-pyridin-2-yl}-N′-(3-methyl-benzylidene)-hydrazine] | 2000 nM |  | 
20 | COc1ccc(CCOc2cc(Nc3ccc4[nH]c(C)c(C)c4c3)cc(N3CCOCC3)n2)cc1OC [Compound 8, {2-[2-(3,4-Dimethoxy-phenyl)-ethoxy]-6-morpholin-4-yl-pyridin-4-yl}-(2,3-dimethyl-1H-indol-5-yl)-amine] | 28 nM |  | 

From patent US8173651B2, “Pyridine compounds” (Synta Pharmaceuticals Corporation, priority 2003, dated 2012)
